From article PMC9742383, “From tryptamine to the discovery of efficient multi-target directed ligands against cholinesterase-associated neurodegenerative disorders” (Frontiers in Pharmacology, 2022) come the findings set out here.

The structures appear in SMILES notation. Like-named read-outs stand apart in the source and are kept apart here.

The target of data set [1] is T1, BuChE (Equus caballus, UniProt P81908). Briefly: Ellman colorimetric assay. Format: biochemical. Also noted: gene BCHE; native enzyme from equine serum, purchased from Sigma-Aldrich. For orientation: In Ellman's method for cholinesterases, released thiocholine reacts with DTNB.
A further data set addresses T2, AChE (Electrophorus electricus, UniProt O42275).
T2 construct: native enzyme, Type V-S lyophilized powder, Sigma-Aldrich
Briefly: Ellman colorimetric assay. Format: biochemical.

The target in data set [2] is T1, BuChE. Briefly: time-dependent Ellman assay, kobs analysis. Also noted: gene BCHE. The following applies: read-out: kc; equilibrium constant of reversible step before carbamylation; covalent.
The nature of data set [3]: in vitro. Further details: MTT cytotoxicity, absorbance at 570 nm, HT-22 mouse hippocampal neuronal cells. The following applies: mouse, read-out: IC50 ± SD / HT-22 ^a. The protocol:
The cell lines present in this study were purchased from the China Center for Type Collection (CCTCC, China). For cytotoxicity assay, HT-22, BV2, SH-SY5Y, HepG2, and LO2 cells were incubated in 96-well plates at the density of 5 × 10³ per well. After incubation for 12 h at 37°C, the tested compounds with the required concentrations were added to the corresponding wells and continuously incubated for 24 h at 37°C. Then, the prepared MTT (3-[4,5-dimethyl-2-thiazolyl]-2,5-diphenyl-2H-tetrazolium bromide) solution was added to each well and co-incubated for another 4 h at 37°C. Then, the supernatant was removed, and 100 μl DMSO was added to each well. The OD value of each well was detected at 570 nm using a microplate reader (Bio-Rad Laboratories, CA, United States). The IC50 values were calculated using IBM SPSS Statistics 25.0 software. All experiments were performed in triplicate, and the results were shown as the mean ± SD. In order to explore the applicability of the synthesized CTDs in neurological diseases, the neuronal cytotoxicity of the synthesized compounds was evaluated on mouse hippocampal neuronal cell line HT-22. […] In view of these CTDs endowed strong inhibition efficacy on BuChE, we preliminarily evaluated their safety range by comparing their IC50 values on cytotoxicity and BuChE inhibitory activity. […] Therefore, the series of compounds with dibenzyl groups, especially compounds bearing ring carbon alkyl chains (2f-2h) and tertiary amine residues (2j-2u) with little cytotoxicity on HT-22, can be considered as potential lead building blocks for further structure optimization to develop novel effective agents against neurological diseases.

Data set [4] can be described thus: in vitro. Further details: species or system SH-SY5Y, HepG2; MTT cytotoxicity, absorbance at 570 nm. The following applies: human, lo2 cells; read-out: ^a IC50 ± SD (μM) / LO2. How it is done: (§1) The cell lines present in this study were purchased from the China Center for Type Collection (CCTCC, China). For cytotoxicity assay, HT-22, BV2, SH-SY5Y, HepG2, and LO2 cells were incubated in 96-well plates at the density of 5 × 10³ per well. After incubation for 12 h at 37°C, the tested compounds with the required concentrations were added to the corresponding wells and continuously incubated for 24 h at 37°C. Then, the prepared MTT (3-[4,5-dimethyl-2-thiazolyl]-2,5-diphenyl-2H-tetrazolium bromide) solution was added to each well and co-incubated for another 4 h at 37°C. Then, the supernatant was removed, and 100 μl DMSO was added to each well. The OD value of each well was detected at 570 nm using a microplate reader (Bio-Rad Laboratories, CA, United States). The IC50 values were calculated using IBM SPSS Statistics 25.0 software. All experiments were performed in triplicate, and the results were shown as the mean ± SD. In order to further evaluate the applicability of the compounds with dibenzyl groups for neurological diseases, we also tested the cytotoxicity of the selected compounds (2f, 2h, 2j, 2m, 2o-2r, 2t, and 2u) bearing little toxicity on HT-22 cells, microglia cell line BV2, and human neuroblastoma cell line SH-SY5Y, which are widely used in the study of neurological diseases. […] In view of some carbamate-based ChE inhibitors reported to be hepatotoxic, we further performed the preliminary evaluation of the hepatotoxicity of the selected compounds on human normal liver cell line LO2 and human hepatocellular carcinoma cell line HepG2.

A short description of data set [5]: in vitro. Also noted: species or system LO2, HepG2; MTT cytotoxicity, absorbance at 570 nm. The following applies: human, sh-sy5y; read-out: ^a IC50 ± SD (μM) / SH-SY5Y. How it is done: as §1
Data set [6] is described as follows: in vitro. Further details: species or system SH-SY5Y, LO2; MTT cytotoxicity, absorbance at 570 nm. The settings on record: human, hepg2; read-out: ^a IC50 ± SD (μM) / HepG2. How it is done:
as §1

The mark [7] stands for this setting: read-out: IC50 ± SD ^a / BuChE ^a.
[8] abbreviates: read-out: IC50 ± SD ^a / AChE ^a.
Where [9] appears, read: ht-22 hippocampal neuronal cells.

T2 sequence (O42275 24-633): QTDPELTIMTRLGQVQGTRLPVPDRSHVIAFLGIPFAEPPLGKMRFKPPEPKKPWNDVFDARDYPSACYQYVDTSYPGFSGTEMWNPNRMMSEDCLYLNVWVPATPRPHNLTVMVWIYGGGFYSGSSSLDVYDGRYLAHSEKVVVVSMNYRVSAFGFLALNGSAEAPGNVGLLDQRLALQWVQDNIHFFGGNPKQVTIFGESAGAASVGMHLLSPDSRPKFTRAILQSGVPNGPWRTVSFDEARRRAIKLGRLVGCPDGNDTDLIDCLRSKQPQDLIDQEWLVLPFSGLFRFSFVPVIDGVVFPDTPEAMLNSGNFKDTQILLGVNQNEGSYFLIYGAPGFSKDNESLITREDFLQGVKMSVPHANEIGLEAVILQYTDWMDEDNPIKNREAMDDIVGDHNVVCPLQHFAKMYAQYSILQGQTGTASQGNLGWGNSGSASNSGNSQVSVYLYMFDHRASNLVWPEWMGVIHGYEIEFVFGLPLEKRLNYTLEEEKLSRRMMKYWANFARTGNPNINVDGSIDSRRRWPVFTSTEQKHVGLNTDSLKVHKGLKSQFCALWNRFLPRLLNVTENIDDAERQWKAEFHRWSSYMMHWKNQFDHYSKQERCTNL
T1 sequence (P81908 whole entry): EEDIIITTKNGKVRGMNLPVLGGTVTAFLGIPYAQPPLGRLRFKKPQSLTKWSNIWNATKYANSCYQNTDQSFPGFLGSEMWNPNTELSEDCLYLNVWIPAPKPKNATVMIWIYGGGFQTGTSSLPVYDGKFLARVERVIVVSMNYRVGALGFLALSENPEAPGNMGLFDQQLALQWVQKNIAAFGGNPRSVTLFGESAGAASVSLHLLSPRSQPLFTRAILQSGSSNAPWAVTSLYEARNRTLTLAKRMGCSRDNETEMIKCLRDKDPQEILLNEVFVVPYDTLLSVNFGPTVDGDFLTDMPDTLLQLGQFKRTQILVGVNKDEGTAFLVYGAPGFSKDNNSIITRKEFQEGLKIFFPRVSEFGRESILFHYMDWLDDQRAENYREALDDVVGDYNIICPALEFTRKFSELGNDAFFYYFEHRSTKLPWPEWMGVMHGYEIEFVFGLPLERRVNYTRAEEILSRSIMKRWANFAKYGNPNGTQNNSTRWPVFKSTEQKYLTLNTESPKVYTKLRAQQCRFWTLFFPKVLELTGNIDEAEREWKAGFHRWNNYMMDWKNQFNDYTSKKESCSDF

Take `CCCCCCCNC(=O)Oc1ccc2[nH]cc(CCN(Cc3ccccc3)Cc3ccccc3)c2c1` [2e, 3-(2-(dibenzylamino)ethyl)-1H-indol-5-yl heptylcarbamate]: the IC50 at BuChE [1] (read-out: IC50 ± SD / BuChE ^a) is 1.42 ± 0.004 nM; at AChE (read-out: IC50 ± SD / AChE ^a) it was > 100000 nM. Besides, at BuChE [2], the KI (inactivation) came out at 2.55 nM. Besides, the CC50 at 24 h in “in vitro [3]” (ht-22) was found to be 35600 ± 2450 nM.

On to `O=C(NC1CC1)Oc1ccc2[nH]cc(CCN(Cc3ccccc3)Cc3ccccc3)c2c1` [2f, 3-(2-(dibenzylamino)ethyl)-1H-indol-5-yl cyclopropylcarbamate], for which the IC50 at BuChE [1] (read-out: IC50 ± SD / BuChE ^a) was 8.75 ± 0.23 nM; at AChE (read-out: IC50 ± SD / AChE ^a), > 100000 nM. For the same molecule, on BuChE [2], the KI (inactivation) was determined as 1.59 nM. In the data set “in vitro [3]” (ht-22), the CC50 at 24 h came out at 60200 ± 3850 nM.

For `CCCCCNC(=O)Oc1ccc2[nH]cc(CCNCc3ccccc3)c2c1` [3c, 3-(2-(benzylamino)ethyl)-1H-indol-5-yl pentylcarbamate], the results for the IC50 on BuChE [1] (setting [7]) and at AChE (setting [8]) were 23.9 ± 2.9 nM and 1130 nM, respectively. In addition, the KI (inactivation) at BuChE [2] was 73.7 nM. Besides, the CC50 at 24 h in “in vitro [3]” (setting [9]) was determined as 10600 ± 240 nM.

On to `O=C(NC1CC1)Oc1ccc2[nH]cc(CCNCc3ccccc3)c2c1` [3f, 3-(2-(benzylamino)ethyl)-1H-indol-5-yl cyclopropylcarbamate], for which the IC50 on BuChE [1] (setting [7]) was found to be 15.7 ± 1.3 nM; at AChE (setting [8]) it was 3170 nM. For the same molecule, the KI (inactivation) at BuChE [2] amounted to 5.76 nM. Also, the CC50 at 24 h in the data set “in vitro [3]” (setting [9]) turned out to be 15000 ± 1170 nM.

For the molecule `O=C(Oc1ccc2[nH]cc(CCNCc3ccccc3)c2c1)N1CCCCC1` [3s, 3-(2-(benzylamino)ethyl)-1H-indol-5-yl piperidine-1-carboxylate], the IC50 came to 33.9 ± 2.14 nM on BuChE [1] (setting [7]) and 9080 nM at AChE (setting [8]). The KI (inactivation) at BuChE [2] was found to be 5.08 nM. Moreover, the CC50 at 24 h in “in vitro [3]” (setting [9]) worked out at 13800 ± 910 nM.

With `CCCCCCCNC(=O)Oc1ccc2[nH]cc(CCN)c2c1` [4e, 3-(2-aminoethyl)-1H-indol-5-yl heptylcarbamate], the IC50 is 10.1 ± 0.83 nM on BuChE [1] (BTCI substrate, […] min preincubation […] °C, pH […], pseudo-irreversible carbamate, covalent, read-out: IC50 ± SD ^a / BuChE ^a) and > 100000 nM on AChE (ATCI substrate, […] min preincubation […] °C, pH […], read-out: IC50 ± SD ^a / AChE ^a). Further, the KI (inactivation) at BuChE [2] was determined as 3.02 nM. Besides, in the data set “in vitro [3]” (setting [9]), the CC50 at 24 h is 26100 ± 2290 nM.

`CCN(C)C(=O)Oc1cccc([C@H](C)N(C)C)c1` [rivastigmine]: the CC50 at 24 h in “in vitro [4]”, in “in vitro [5]” and in “in vitro [6]” was > 100 µM throughout. At BuChE [2], the KI (inactivation) is 55.9 nM.
